The values below come from patent US5227372A, “Method for retaining ophthalmological agents in ocular tissues” (Children's Medical Center Corporation, priority 1990, dated 1993).

Data set [1] relates to fibroblast growth factor (FGF). The settings on record: sulfated cyclodextrin column; Shing et al.; cited from earlier work.
The conditions of data set [2]: rabbit, in vivo.
Procedure: A polyethylene ring was glued to the cornea in anesthesized rabbits. Saline containing 1 mg/ml of [S^35 ]-β-cyclodextrin tetradecasulfate was added to each well for up to 120 minutes, after which the wells were removed and the corneas vigorously rinsed with saline. The anterior chamber fluid (ACF) was then aspirated. The corneas were then exised and digested in collegenase and the corneal supernatunt counted.
For data set [3] the following is noted: rabbit, in vivo. This is another data set of the same source.
For data set [4] the following is noted: polymeric film; cited from earlier work.
For data set [5] the following is noted: polyacrylamide and copolymer of acrylamide, N-vinylpyrrolidone and ethyl acrylate matrix; cited from earlier work.
For data set [6] the following is noted: intravenous injection; fluorescein alone; cited from earlier work.
Data set [7] in a line: Fluorescence of neovascularized corneal vessels after injection into the carotid artery (Example 4). It counts as in vivo, rabbit. As to conditions: injected into the carotid artery; fluorescein alone. As for the experimental part: The water soluble complex described in Example 3 was injected into the carotid artery of rabbits who had neovascularization in the cornea induced by a pellet of endotoxin implanted one week earlier. After a single injection, the new vessels in the cornea were still flourescing green 3 hours later.
Similarly, when the cyclodextrin-fluorscein complex, dissolved in an aqueous solution of methylcellulose (0.45%), was applied to the rabbit cornea, Descemet's membrane in the cornea also glowed green more than 3 hours later when histological sections of the corneas were examined.

Data set [8] in a line: Fluorescence of Descemet's membrane in histological sections of corneas after application to the cornea (Example 4). It counts as in vivo, rabbit. The settings on record: fluorescein alone.

On to β-cyclodextrin tetradecasulfate, for which, in data set [1], the “affinity for FGF” value was “high affinity”. In addition, in data set [2], the “time after removal of wells up to which label is detected in the ACF and in the corneas” value is recorded as “up to three”; the “time course of penetration in both the corneas and ACF” value is listed as “increased bearly with time”. In data set [3], the “concentration in the aqueous humor relative to cornea” value is listed as “parallels that in the cornea, but at lower levels”; the “time course in the cornea” value is “rapid rise in the cornea of labelled β-cyclodextrin tetradecasulfate and then a gradual fall-off”.
As for `CC[C@@H]1C(=O)OC[C@@H]1Cc1cncn1C` [pilocarpine], the “increase in ocular bioavailability of pilocarpine over aqueous solution” value in data set [4] is “two”. In addition, the “increase in ocular bioavailability of pilocarpine” value in data set [5] is given as “three”.
Consider `O=C1OC2(c3ccc(O)cc3Oc3cc(O)ccc32)c2ccccc21` [fluorescein], for which the “time to clearance from the blood vessels” value in data set [6] is “less than one”. Besides, the “disappearance from the corneal vessels” value in data set [7] was “disappeared from the corneal vessels within a few minutes”. In addition, the “presence in Descemet's membrane” value in data set [8] is “not found in Descemet's membrane”.
